Reference: US20100075316A1, “METHOD FOR I[…] VITAMIN D METABOLISM” (priority 2006, published 2010)

Legend:
[1] = system: CYP24; assay: CYP24 enzyme activity in untreated and calcitriol-treated human cancer cell lines; format: cell-based; settings: for CYP24A1 enzyme activity profiles: baseline and calcitriol-induced
Description: FIG. 2 is a graphical depiction of CYP24 enzymatic activity measured in untreated and calcitriol treated human cancer cell lines.
This Example provides an analysis of CYP24 enzyme activity in untreated and calcitriol-treated human (prostate, breast, lung and colon) cancer cell lines to characterize their capacity to catabolize calcitriol.

[2] = system: PC3; settings: PC3, androgen independent human prostate cancer cells; cited from earlier work
[3] = system: advanced prostate cancer; settings: randomized trial, men with advanced prostate cancer; cited from earlier work
[4] = system: LNCaP; settings: androgen dependent human prostate cancer cell line; cited from earlier work
[5] = system: CYP24 mRNA; assay: Semi-quantitative RT-PCR of CYP24 exon 11-12 transcripts before and after calcitriol treatment; format: cell-based, human; settings: after calcitriol treatment
Description: FIGS. 3A-3D provide graphical representations of CYP24 mRNA splicing patterns and cDNA amplification profiles. FIG. 3A provides a graphical map of the CYP24 gene from exon 9 through exon 11, an example of primer locations for obtaining cDNA using RT-PCR, and resulting products in the case of correct (280 bp) and aberrant (880 bp) splicing. FIG. 3B provides a graphical map of the CYP24 gene from exon 11 through exon 12 and RT-PCR cDNA product sizes for correctly spliced CYP24 mRNA from a CYP24 gene lacking a predictive SNP (150 bp), as well as the inclusion of intron 12 sequences in aberrantly spliced CYP24 mRNA when the predictive SNP is present (302 by transcript). FIG. 3C is a photographic representation of cDNA amplification products of unspliced or spliced CYP24 mRNA across exons 9-11 of the CYP24 mRNA. FIG. 3D is a photographic representation of cDNA amplification products across exons 11-12 of correctly spliced (150 bp) or aberrantly spliced (302 bp) CYP24 mRNA from various cancer cell lines.
Calcitriol treatment (T) modulated the relative expression of the two transcripts differently in the three prostate cancer cell lines. CYP24 enzyme activity is associated with the expression of the lower molecular weight transcript in the three prostate cancer cell lines as shown in Table 3 (D3=calcitriol), which describes the relationship between CYP24 protein activity phenotypes and exon 11-12 transcript size before (“C” in FIG. 3) and after (“T” in FIG. 3) calcitriol treatment in prostate cancer cell lines.

[6] = Serum calcitriol clearance in cancer patients by CYP24 genotype; format: in vivo, human; settings: TT/TT genotype (positions 15752 and 15774 of SEQ ID NO:1) vs TC/TC; 30 patients, oral high doses of calcitriol; p-value=0.0377
Method: Elimination half life was calculated using the equation: T1/2=0.693/β, where β is the slope of the regression line of the terminal log serum calcitriol concentration versus time.
This Example provides an analysis of clinical ramifications of certain CYP24 polymorphisms. To obtain the data presented in this Example, we analyzed CYP24 polymorphisms in the intron between exon 9 and 10 in DNA samples obtained from 30 cancer patients treated with high doses of orally administered calcitriol. […] (Smith DC, et al., Clin Cancer Res. 1999; 5: 1339-1345).

[7] = system: DU145; settings: DU145, androgen independent human prostate cancer cells; cited from earlier work

With `C=C1/C(=C\C=C2/CCC[C@]3(C)[C@@H]([C@H](C)CCCC(C)(C)O)CC[C@@H]23)C[C@@H](O)C[C@@H]1O` [calcitriol] the “baseline and calcitriol-induced CYP24 enzyme profile” value ([1]; A549 lung cancer cells) was “high baseline and calcitriol induced CYP24 activity”, the “CYP24A1 enzyme activity profiles” value ([1]; DU145 prostate cancer cells) was “high baseline and calcitriol induced CYP24 activity” and the “CYP24A1 enzyme activity profiles” value ([1]; DU145 prostate cancer cells, listed as D3) was “High baseline & D3 inducible”. For the same compound, the “baseline and calcitriol-induced CYP24 enzyme profile” value ([1]; H520 lung cancer cells) was “negligible baseline and calcitriol-induced CYP24 activity”, the “baseline and calcitriol-induced CYP24 enzyme profile” value ([1]; HCT116 colon cancer cells) was “high baseline and calcitriol induced CYP24 activity” and the “baseline and calcitriol-induced CYP24 enzyme profile” value ([1]; HT29 colon cancer cells) was “barely detectable baseline CYP24 activity that is calcitriol-induced”. For the same compound, the “CYP24A1 enzyme activity profiles” value ([1]; LNCaP prostate cancer cells) was “negligible baseline and calcitriol-induced CYP24 activity”, the “CYP24A1 enzyme activity profiles” value ([1]; LNCaP prostate cancer cells, listed as D3) was “Negligible: baseline & D3 inducible” and the “baseline and calcitriol-induced CYP24 enzyme profile” value ([1]; MCF7 breast cancer cells) was “barely detectable baseline CYP24 activity that is calcitriol-induced”. The “baseline and calcitriol-induced CYP24 enzyme profile” value ([1]; MDA231 breast cancer cells) was “high baseline and calcitriol induced CYP24 activity”, the “CYP24A1 enzyme activity profiles” value ([1]; PC3 prostate cancer cells) was “barely detectable baseline CYP24 activity that is calcitriol-induced” and the “CYP24A1 enzyme activity profiles” value ([1]; PC3 prostate cancer cells, listed as D3) was “Negligible baseline & high D3 inducible”. For the same compound, the “sensitivity to calcitriol growth inhibition” value [2] was “relatively resistant to calcitriol growth inhibition”, the “potentiation of antitumor activity of docetaxel” value [3] was “potentiate the antitumor activity of docetaxel” and the “sensitivity to calcitriol growth inhibition” value [4] was “sensitive to calcitriol growth inhibition”. For the same compound, the “Exon 11-12 size (bp), D3 treated” value ([5]; DU145 prostate cancer cells) was 135 bp, the “Exon 11-12 size (bp), D3 treated” value ([5]; LNCaP prostate cancer cells) was 307 bp and the “Exon 11-12 size (bp), D3 treated” value ([5]; PC3 prostate cancer cells) was 135 bp. For the same compound, the “serum calcitriol elimination half life (T1/2)” value [6] was “significantly lower T1/2 than the TC/TC genotype” and the “sensitivity to calcitriol growth inhibition” value [7] was “relatively resistant to calcitriol growth inhibition”.
